This assay deals with T1, Human ATX protein (Homo sapiens, UniProt Q13822).
T1 construct: made in house
The assay can be described thus: ATX biochemical FRET assay with FS-3 substrate. As to conditions: FS-3 2 μM, ATX 1.0 μg/mL, room temperature 2 hours, fluorescence 485/538 nm. The text has this: ATX (Autotaxin) is a 125 KDa glycoprotein with lysophospholipase D (LPLD) activity that generates the bioactive lipid lysophosphatidic acid (LPA) from lysophosphatidylcholine (LPC). The ATX biochemical assay utilizes a FRET (fluorescence resonance energy transfer) technology platform. The fluorescence signal of FRET substrate FS-3 is quenched due to intra-molecular FRET of a fluorophore to a non-fluorescing quencher (Ferguson, C. G., et al., Org Lett. 2006 May 11; 8(10): 2023-2026, which is incorporated by reference in its entirety). ATX catalyzes the hydrolysis of the substrate which separates the dabsyl quencher from the fluorescein reporter, which becomes fluorescent. The reaction is monitored by a SpectraMax M5 (Molecular Devices, Sunnyvale, Calif.) with at excitation wavelength 485 nm and emission wavelength […].
Fatty acid free-BSA (Sigma A8806): 10 mg/ml, in H2O, stored at 4° C.
2×ATX assay buffer: 100 mM Tris, 280 mM NaCl, 10 mM KCl, 2 mM CaCl2, 2 mM MgCl2, pH 7.4.
Human ATX protein: expressed and purified in house. Stored at −80° C.
Substrate FS-3 (Echelon, L-2000): 100 μg in 77.74 μL H2O (1 mM stock), stored at −20° C.
384-well flat bottom plates—Corning #3575.
Compound dilution—All compounds were provided at 10 mM in 100% DMSO. In the first well, 2 μL of 10 mM compound was added to 78 μL of DMSO (1:40 dilution). In subsequent wells 3-fold dilution (total 10 dilutions) were performed.
1×ATX assay buffer was made up with a final concentration of 1 mg/mL fatty acid free-BSA using 2×ATX assay buffer, 10 mg/ml fatty acid free-BSA and ddH2O.
ATX protein was diluted with 1×ATX assay buffer to a concentration of 1.32 μg/mL (1.32×). 38 μL was added per well to the assay plate. The final concentration of ATX in the reaction as 1.0 μg/mL.
2 μL per well of compounds was transferred to provide the desired concentration. The plate was centrifuged, then incubated at room temperature for 30 minutes on the shaker.
FS-3 was diluted with 1×ATX assay buffer to a concentration of FS-3 of 10 μM (5×). Then, 10 μL was added per well to the assay plate. The final concentration of FS-3 in the reaction was 2 μM. The plate was centrifuged. The plate was kept shaking at room temperature for 2 hours. Because FS-3 substrate is light sensitive, plates were kept covered and protected from light.
Fluorescence was measured using SpectraMax M5 (excitation at 485 nm/emission at 538 nm, top read).
Take `CC[C@@H](c1ccc2c(C(F)(F)F)c(O[C@H]3CC[C@@H](C(F)(F)F)CC3)ccc2c1)N1C2CCCC1CC(C(=O)O)C2` (single isomer, unassigned) [Example 296]: the half-inhibitory concentration (IC50) (usually the concentration that inhibits the measured activity by half) was at most 0.1 µM. On to `CC(c1ccc2c(C(F)(F)F)c(O[C@H]3CC[C@@H](C)CC3)ccc2c1)N1C2CCCC1CC(C(=O)O)C2` (single isomer, unassigned; enantiomer 1) [Example 94, 9-(1-(6-((cis-4-Methylcyclohexyl)oxy)-5-(trifluoromethyl)naphthalen-2-yl)ethyl)-9-azabicyclo[3.3.1]nonane-3-carboxylic acid, enantiomer 1], for which the IC50 is at most 0.1 µM. Then `CC(c1ccc2c(C(F)(F)F)c(O[C@H]3CC[C@@H](C)CC3)ccc2c1)N1C2CCC1CC(C(=O)O)C2` (single isomer, unassigned; enantiomer 1) [Example 130, 8-(1-(6-((cis-4-Methylcyclohexyl)oxy)-5-(trifluoromethyl)naphthalen-2-yl)ethyl)-8-azabicyclo[3.2.1]octane-3-carboxylic acid, enantiomer 1], with at most 0.25 µM. Molecule `CC(c1ccc2c(C(F)F)c(O[C@H]3CC[C@@H](C)CC3)ccc2c1)N1C2CCC1CC(C(=O)O)C2` (single isomer, unassigned; enantiomer 1) [Example 136, 8-(1-(5-(difluoromethyl)-6-((cis-4-methylcyclohexyl)oxy)naphthalen-2-yl)ethyl)-8-azabicyclo[3.2.1]octane-3-carboxylic acid, enantiomer 1] showed a concentration for half-maximal inhibition (IC50) of at most 0.1 µM.

In the case of `CC(c1ccc2c(C(F)F)c(O[C@H]3CC[C@@H](C)CC3)ccc2c1)N1C2CCCC1CC(C(=O)O)C2` (single isomer, unassigned; enantiomer 1) [Example 138, 9-(1-(5-(difluoromethyl)-6-((cis-4-methylcyclohexyl)oxy)naphthalen-2-yl)ethyl)-9-azabicyclo[3.3.1]nonane-3-carboxylic acid, enantiomer 1], the IC50 is at most 0.1 µM.

Consider `CCC(c1ccc2c(C(F)F)c(O[C@H]3CC[C@@H](C)CC3)ccc2c1)N1C2CCC1CC(C(=O)O)C2` (single isomer, unassigned; enantiomer 1) [Example 140, 8-(1-(5-(difluoromethyl)-6-((cis-4-methylcyclohexyl)oxy)naphthalen-2-yl)propyl)-8-azabicyclo[3.2.1]octane-3-carboxylic acid, enantiomer 1], for which the IC50 was at most 0.1 µM. `O=C(O)C1CC2CCC(C1)C2NCc1ccc2c(C(F)(F)F)c(O[C@H]3CC[C@@H](C(F)(F)F)CC3)ccc2c1` (single isomer, unassigned; enantiomer 1) [Example 162, N-(5-trifluoromethyl-6-(cis-4-trifluoromethyl-cyclohexyloxy)-naphthalen-2-ylmethyl)-8-aminobicyclo[3.2.1]octane-3-carboxylic acid, enantiomer 1] came in with an IC50 of at most 0.25 µM. Then `CC(c1ccc2c(C(F)(F)F)c(O[C@H]3CC[C@@H](C(F)(F)F)CC3)ccc2c1)N1C2CCC1CC(C(=O)O)C2` (single isomer, unassigned; enantiomer 1) [Example 173, 8-(1-(5-(trifluoromethyl)-6-((cis-4-(trifluoromethyl)cyclohexyl)oxy)naphthalen-2-yl)ethyl)-8-azabicyclo[3.2.1]octane-3-carboxylic acid, enantiomer 1], with at most 0.1 µM; and `CC(c1ccc2c(C(F)(F)F)c(O[C@H]3CC[C@@H](C)CC3)ccc2c1)N1C2CCC1CC(C(=O)O)C2` (single isomer, unassigned; enantiomer 2) [Example 131, 8-(1-(6-((cis-4-Methylcyclohexyl)oxy)-5-(trifluoromethyl)naphthalen-2-yl)ethyl)-8-azabicyclo[3.2.1]octane-3-carboxylic acid, enantiomer 2], with at most 0.1 µM.

In turn, `CC[C@H]1CC[C@@H](Oc2ccc3cc(CN4C5CCCC4CC(C(=O)O)C5)ccc3c2)CC1` (stereo partly drawn) [Example 83, 9-((6-((cis-4-ethylcyclohexyl)oxy)naphthalen-2-yl)methyl)-9-azabicyclo[3.3.]nonane-3-carboxylic acid] registered an IC50 of at most 0.5 µM.

The values above are taken from patent publication US9944666B2, “Compounds that are S1P modulating agents and/or ATX modulating agents” (BIOGEN MA INC., priority 2012, dated 2018).
